According to article PMC6599006, “Rational design using sequence information only produces a peptide that binds to the intrinsically disordered region of p53” (Scientific Reports, 2019):
Peptide text beside a SMILES is read from it.

What was measured:
[1] = system: FL-p53 binding to nspDNA (random sequence); experiment: Fluorescence anisotropy titration of FL-p53 against nspDNA in the presence of peptide; assay type: biochemical, human
Text: (§1) We prepared FL-p53, TetCT mutant, and CoreTet mutant as described previously. For FL-p53, the thermostable and cysteine-modified mutant of human p53 (C124A, C135V, C141V, W146Y, C182S, V203A, R209P, C229Y, H233Y, Y234F, N235K, Y236F, T253V, N268D, C275A, C277A, K292C) was used[11]. The TetCT mutant corresponds to residues 293−393 of human p53 with an additional N-terminal cysteine. The CoreTet mutant corresponds to residues 1–363 of FL-p53[12]. Expression and purification of the three mutants was conducted as previously described[11],[12]. Briefly, all mutants with a GST tag were expressed in Escherichia coli and were collected from a GST column after cleavage of the GST tag and further purified by using a heparin column. The DNA binding ability of all mutants was confirmed by titration experiments as described elsewhere[10]–[12]. […]
(§2) The fluorescence anisotropy of fluorescent CT peptide or DNA was measured at 25 °C using a fluorescence spectrometer (FP-6500, JASCO Co., Tokyo, Japan) with an automatic titrator and home-build autorotating polarizer. […] For p53 mutants, the concentration was calculated for the tetramer.

[2] = system: FL-p53 binding to spDNA (p21); experiment: Fluorescence anisotropy titration of FL-p53 against spDNA in the presence of peptide; assay type: biochemical, human; settings: saturated at 300 μM DP6
Text: as §1, §2

[3] = system: CoreTet mutant of p53 binding to spDNA (p21); experiment: Fluorescence anisotropy titration of CoreTet mutant against spDNA in the presence of DP6; assay type: biochemical, human; settings: 600 μM DP6
Protocol: (§3) The solution used here included 100 mM KCl to mimic physiological conditions.
as §1, §2

[4] = biological target: T1, CT peptide (residues 367–393 of human p53) (Homo sapiens, UniProt P04637); experiment: Fluorescence anisotropy titration of peptides against FAM-labeled CT peptide of p53; assay type: binding; settings: absence of salt; versus Wmot2, Cul7, WS100B peptides
T1 construct: CT peptide (residues 367–393 of human p53) labeled with FAM at the N-terminus; purchased Toray Research Center Inc., Tokyo, Japan; host or cells: chemical synthesis
Protocol: To test how well our method worked, we titrated the designed peptides against the CT peptide (residues 367–393) labeled with a fluorescent dye, FAM, using a fluorometer with fluorescence anisotropy[11]
The fluorescence anisotropy of fluorescent CT peptide or DNA was measured at 25 °C using a fluorescence spectrometer (FP-6500, JASCO Co., Tokyo, Japan) with an automatic titrator and home-build autorotating polarizer[11]. […] The titration curves were fitted by the following equations:1 robs=rA(cA−cAB)/cA+rABcAB/cA, 2 cAB=(cA+cB+KD)−(cA+cB+KD)^2−4cAcB/2, where robs, rA, rAB, KD, cA, and cB are the observed anisotropy, anisotropy of free molecule A, anisotropy of the complex between molecules A and B, dissociation constant, total concentration of molecule A and total concentration of molecule B, respectively. For p53 mutants, the concentration was calculated for the tetramer.

[5] = system: TetCT mutant of p53 binding to nspDNA (random sequence); experiment: Fluorescence anisotropy titration of TetCT mutant against nspDNA in the presence of DP6; assay type: biochemical, human; settings: at more than 150 μM DP6; 100 mM KCl
Protocol: as §3, §1, §2

[6] = biological target: T2, FL-p53 labeled with Atto532 sliding along nspDNA (λDNA array) (Homo sapiens, UniProt P04637, C124A/C135V/C141V/C182S/C229Y/C275A/C277A/H233Y/K292C/N235K/N268D/R209P/T253V/V203A/W146Y/Y234F/Y236F); experiment: Single-molecule fluorescence measurement of 1D sliding of FL-p53 along DNA (DNA garden); assay type: biochemical; settings: displacement analysis, time interval 165 ms; for Fraction of fast sliding mode of FL-p53: 100 mM KCl, 2 mM MgCl2, pH 7.9
T2 construct: we prepared three p53 constructs: full-length p53 (FL-p53); GST (cleaved yes); made in house; host or cells: Escherichia coli
Protocol: The 1D sliding of FL-p53 labeled with Atto532 along DNA was measured by a custom-built TIRF microscope, as described previously[11],[39]. The λDNA array tethered on the coverslip of the flow cell was constructed using microcontact printing as described previously[39]. FL-p53 was labeled with Atto532 as described elsewhere[11]. FL-p53 with Atto532 at 2–4 nM was introduced into the flow cell with the DNA array by a syringe pump and measured at a flow rate of 500 μL/min, corresponding to 90% extension of λDNA. […] The experiments were conducted immediately after the dilution of FL-p53 from the stock solution at more than 10 μM and finished within 50 min to prevent the dissociation of the tetramer[40]. The analysis was described previously[11]. For distribution analysis, the following fitting equation was used:3 P(δx)=∑i=12Ai/4πDiδtexp(−(δx+viδt)^2/4Diδt), where P(δx), δt, δx, Ai, vi, and Di are the occurrence of δx, time interval, displacement in the time interval, amplitude of the ith mode, drift velocity of the ith mode, and diffusion coefficient of the ith mode, respectively.

| Compound | increase of the KD of FL-p53 for nspDNA ([1]; at 600 μM than at 0 μM DP6) [fold] | increase of the KD of FL-p53 for spDNA [2] [fold] | effect on binding of the CoreTet mutant to spDNA [3] | KD of DP6 with respect to the CT domain, times stronger than the KD of the natural peptides [4] | anisotropy change for nspDNA on titration of TetCT mutant [5] | Fraction of slow sliding mode of FL-p53 ([6]; [DP6] 300) [%] | Fraction of fast sliding mode of FL-p53 ([6]; [DP6] 300) [%] | Fraction of slow sliding mode of FL-p53 ([6]; [DP6] 600) [%] | Fraction of fast sliding mode of FL-p53 ([6]; [DP6] 600) [%] | effect on the affinity of FL-p53 for DNA ([1]; DP5, nspDNA and spDNA (Fig. S7, Table S2)) |
| --- | --- | --- | --- | --- | --- | --- | --- | --- | --- | --- |
| NC(=O)C[C@H](NC(=O)[C@H](CC(N)=O)NC(=O)[C@H](CC(=O)O)NC(=O)[C@H](CCC(=O)O)NC(=O)[C@H](CCC(=O)O)NC(=O)[C@H](CCC(=O)O)NC(=O)[C@H](CCC(=O)O)NC(=O)[C@@H](N)CCC(=O)O)C(=O)N[C@@H](CC(=O)O)C(=O)N[C@@H](CC(=O)O)C(=O)N[C@@H](CC(=O)O)C(=O)N[C@@H](CCC(=O)O)C(=O)N[C@@H](CCC(=O)O)C(=O)N[C@@H](CCC(=O)O)C(=O)N[C@@H](Cc1c[nH]c2ccccc12)C(=O)N[C@@H](Cc1ccccc1)C(=O)O [DP6] | 7 | 3 | did not weaken the binding | at least 12 times | no significant change in anisotropy | 54 ± 1 | 46 ± 2 | 31 ± 2 | 69 ± 1 | – |
| NC(=O)C[C@H](NC(=O)[C@H](CC(N)=O)NC(=O)[C@H](CC(=O)O)NC(=O)[C@H](CCC(=O)O)NC(=O)[C@H](CCC(=O)O)NC(=O)[C@H](CCC(=O)O)NC(=O)[C@@H](N)CCC(=O)O)C(=O)N[C@@H](CC(=O)O)C(=O)N[C@@H](CC(=O)O)C(=O)N[C@@H](CC(=O)O)C(=O)N[C@@H](CCC(=O)O)C(=O)N[C@@H](CCC(=O)O)C(=O)N[C@@H](CCC(=O)O)C(=O)O [DP5] (H-EEEEDNNDDDEEE-OH) | – | – | – | – | – | – | – | – | – | did not affect the affinity of FL-p53 |
